{"source": "patent US20240269104A1", "about": "“METHOD FOR TREATING PARKINSON'S DISEASE” (Olatec Therapeutics, Inc., priority 2021, published 2024)", "key": {"[1]": {"system": "MPTP-injected-mouse model of PD", "assay": "accelerating rotarod test after MPTP-acute administration", "type": "in vivo, C56BL/J mice", "conditions": "anakinra 20 mg/kg intraperitoneal 30 minutes before MPTP; day 3", "method": "MPTP (Sigma-Aldrich, St. Louis, MO) can be administered at two dose regimens: acute and sub-acute. For the acute regimen, MPTP was administered intraperitoneally (i.p.) four times in one day. Administrations were performed every two hours over an eight-hour period. For the subacute regimen, mice received a single i.p. administration of MPTP per day for five consecutive days. A 20 mg/kg free-base MPTP dose was used for every dose in both models. Sterile saline was used as the vehicle. Control mice were injected with saline solution using the same administration protocol and were defined as sham. Mice were sacrificed at different days after the first injection of MPTP. We used the acute protocol in C56BL/J mice to study dopamine neurodegeneration, inflammation, and motor deficits, whereas the subacute model was used to evaluate α-synuclein aggregation in the following examples. […]\nThe accelerating rotarod (Ugo Basile, Gemonio, ITALY) was used to evaluate locomotor function in mice subjected to the MPTP-acute administration. An accelerating program was selected to detect locomotor impairments associated to MPTP (Keshet et al, J Comp Neurol 504:690-701, 2007; Rui et al., Int J Neuropsychopharmacol., 2020). We used a rotarod device with a cylinder rod of three centimeters in diameter. The mice underwent a training period of three consecutive days prior to MPTP administration. In each training session, mice were subjected to run at four constant speeds (10 rpm, 20 rpm, 30 rpm, and 40 rpm) for 150 seconds at each speed. If mice fell during that time, they were put back in the rotarod immediately. On the testing day, we used an increased-speed program. Mice were placed on the rotarod device for 150 seconds at 30 rpm as warm up. Immediately after 150 seconds, the accelerating session started, and the speed increased from 30 rpm to 70 rpm for 500 seconds. Time to fall was recorded. Accelerating sessions were repeated three times with a resting interval of five minutes between sessions. Average time to fall per mouse was calculated and used as final measurement.\nWe then evaluated the effect of dapansutrile. To avoid overloading animals with fluid (which can lead to fatal heart failure), dapansutrile was administered through oral gavage at 200 mg/kg in water. Dapansutrile was given 30 minutes before the first injection of MPTP. Mice treated with saline were used as control. We also included a sham-group that received saline through intraperitoneal injections instead of MPTP. […]"}, "[2]": {"conditions": "in vivo; cited from earlier work"}}}
{"substance": "anakinra: Interleukin-1 receptor antagonist (IL-1Ra), 17.3 kDa; differs from native human IL-1Ra by an added amino-terminal methionine and absence of glycosylation [reference compound]", "values": [{"measurement": "rotarod latency to fall versus control mice treated with saline", "setting": "[1]", "value": "the same latency to fall"}, {"measurement": "CSF penetration", "setting": "[2]", "value": "0.2-0.3%"}]}
